Assay results published in patent US20080076729A1, “Interferon-beta gene therapy using an improved, regulated expression system” (Schering Aktiengesellachaft, priority 2005, published 2008).

Assays:
Mx1 RNA = Mx1 RNA induction in PBMCs of treated mice (quantitative RT-PCR, normalized to GAPDH); type: in vivo
Protocol: FIG. 6 illustrates Mx1 RNA induction following i.v. (A) or i.m. injection (B) of mIFN-β protein. C57BL/6 mice were administered 15, 150, or 500 ng of purified recombinant mIFN-β protein (specific activity-2.0×10^8 units/mg) by either i.v. (via tail vein) or i.m. injection (n=3 mice per group). At the specified time points post-injection mice were bled, and RNA was isolated from PBMCs. Mx1 RNA was measured by quantitative RT-PCR. The fold increase in Mx1 RNA is expressed relative to GAPDH values measured in the same samples. The controls include naive mice (N), and mice injected with the vehicle buffer only followed by Mx1 analysis at 2 hours (V2 h) or 4 h (V4 h) post-injection. Each column represents the mean value +/− standard deviation.

IP-10 = IP-10 chemokine level in plasma/serum of treated mice by ELISA; type: in vivo
Protocol: FIG. 7 illustrates induction levels of IP-10 (A) and JE (B) following i.v. or i.m. injection of murine IFN-β protein. C57BL/6 mice were administered 15, 150, or 500 ng of purified recombinant mIFN-β protein (specific activity=2.0×10^8 units/mg) by either i.v. (via tail vein) or i.m. injection (n=3 mice per group). The mice were bled at 2, 4, 6, 12, 24, and 48 hours post-injection, and the plasma levels of IP-10 and JE were measured by ELISA (R&D Systems).
FIG. 8 illustrates the induction of IP-10 following intramuscular injection of AAV-1-mIFN-β DNA or mIFN-β plasmid DNA with electroporation (EP) in mice. […] Mice were bled at the indicated time points and IP-10 levels in plasma were determined by ELISA. […]
• A. Development of mIFN-β Biomarkers: For higher sensitivity in detection of murine IFN-β (mIFN-β) activity in vivo, biomarkers for mIFN-β activity were identified in mice after injection of mIFN-β protein or mIFN-β encoded gene therapy vectors. […] In the present study, the expression of the MxA mouse homologue, Mx1, (see e.g., Hug, H et al. Mol Cell Biol 8: 3065-79; Pavlovic, J (1993) Ciba Found Symp 176: 233-43) isolated from murine peripheral blood monocytes (PBMC's) was used to detect the presence of biologically active mIFN-β. • A quantitative PCR/RT-PCR assay was developed to quantitate the levels of Mx1 mRNA in murine PBMC's. […]

## mIFN-β: purified recombinant murine interferon-beta protein
Mx1 RNA; bolus protein
  time after injection beyond which no Mx1 RNA levels above background were detected: 12 h
Mx1 RNA; bolus protein 15, 150 or 500 ng, i.v. or i.m.
  Induction of Mx1 RNA expression relative to vehicle injected mice: 25- to 50 fold
Mx1 RNA; bolus protein i.v. or i.m.
  Tmax of induction of all three biomarkers (Mx1, IP-10, JE): approximately 2 hours
  time after injection of highest Mx1 expression levels: 2 h
  time post-injection within which biomarker levels dropped to background: 12 to 24 h
Mx1 RNA; i.v. injection, diminished at 500 ng
  dose giving highest Mx1 induction: 150 ng
IP-10; bolus protein, each of three doses
  time by which plasma IP-10 dropped to background: ≤ 24 h
IP-10; high dose (500 ng) delivered i.v., 2 hours
  IP-10 levels increase: 3000 fold
